Test results reported in patent US7534809B2, “Phospho-indoles as HIV inhibitors” (priority 2004, dated 2009).
In brackets after ≈: the same amount, converted by molar mass. Read-outs that look alike come from different tables or passages of the source.

What was measured:
[1] = target: T1, CYP3A4 (Homo sapiens, UniProt P08684); assay: CYP450 inhibition, CYP3A4/BFC screening kit; type: in vitro ADME
T1 construct: purchased BD Biosciences
Text: (§1) In vitro CYP450 inhibition screening allows for the prediction of potential drug-drug interactions. […] Potency and rank order of the inhibition can be assessed by determination of the IC50 values for a particular isozyme.
(§2) CYP3A4 inhibition was screened using the CYP3A4/BFC high throughput inhibitor screening kit (BD Biosciences), CYP2D6 inhibition was screened using the CYP2D6/AMMC high throughput inhibitor screening kit (BD Biosciences), and CYP2C9 inhibition was screened using the P450-Glo™ Assay kit (Promega).

[2] = target: T2, CYP2D6 (Homo sapiens, UniProt P10635); assay: CYP450 inhibition, CYP2D6/AMMC screening kit; type: in vitro ADME
T2 construct: purchased BD Biosciences
T2 sequence (P10635 whole entry): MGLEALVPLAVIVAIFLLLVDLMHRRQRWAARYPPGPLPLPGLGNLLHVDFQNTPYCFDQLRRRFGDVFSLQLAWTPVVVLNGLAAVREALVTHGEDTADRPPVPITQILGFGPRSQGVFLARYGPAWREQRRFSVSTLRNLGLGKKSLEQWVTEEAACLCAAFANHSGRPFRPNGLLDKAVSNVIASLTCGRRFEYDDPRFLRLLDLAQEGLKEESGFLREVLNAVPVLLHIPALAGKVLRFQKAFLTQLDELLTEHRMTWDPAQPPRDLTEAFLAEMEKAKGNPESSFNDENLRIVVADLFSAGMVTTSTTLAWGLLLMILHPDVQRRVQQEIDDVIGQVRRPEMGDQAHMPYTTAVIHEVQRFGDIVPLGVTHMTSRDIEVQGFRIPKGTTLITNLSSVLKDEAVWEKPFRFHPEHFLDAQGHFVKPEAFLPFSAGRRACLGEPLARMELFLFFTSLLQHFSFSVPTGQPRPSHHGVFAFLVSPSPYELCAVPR
Text: as §1, §2

[3] = Metabolic stability in human liver microsomes; type: in vitro ADME; conditions: 10 μM, 1 mg/mL microsomes, 37° C., 2 hrs
Text: (§3) The metabolic stability assay is to evaluate the stability of test compound in biological matrices. Data are useful in terms of understanding and predicting the elimination mechanisms of the test compound. CYP450-dependent metabolism of drugs can also vary widely from one species to another. Evaluating in vitro metabolism of a drug by liver microsomes from multiple species allows the comparison of metabolism in animal species to that of humans. This can help identify the most relevant animal model for PK and toxicology studies. The metabolic stability of a test compound was evaluated in vitro in liver microsomes of the rat, dog, monkey, and human. 10 μM of the test compound was pre-incubated for 5 min at 37° C. with 1 mg/mL liver microsomes in 0.1M Tris buffer, pH 7.4 containing 5 mM MgCl2 and 0.1 mM EDTA. Following pre-incubation, NADPH (final concentration of 3 mM) was added to start the reaction and samples incubated for 0 and 1 or 2 hours. After terminating the reaction, the supernatant was analyzed by HPLC-UV or LC/MS/MS for the disappearance of the parent and formation of metabolite(s). The %parent remaining was the peak area ratio of the 1 or 2 hr sample to the time 0 sample. In general, less metabolism (higher % parent values) is more desirable.

[4] = Metabolic stability in monkey liver microsomes; type: in vitro ADME; conditions: 10 μM, 1 mg/mL microsomes, 37° C., 2 hrs
Text: as §3

[5] = Human plasma protein binding, equilibrium dialysis; type: in vitro ADME; conditions: pooled human plasma, 37° C., about 6 hours, 1 μM drug, read-out: Protein binding (human plasma) % Free
Method: The human plasma protein binding was determined using the Equilibrium Dialysis method. Dialysis was conducted with pooled human plasma at 37° C. for approximately 6 hours at a drug concentration of 1 μM. At the end of the dialysis, buffer samples from the buffer-side of the dialysis cell were collected and analyzed by LC/MS/MS for free drug concentration. For NNRTIs, a lower protein binding is more desirable.

[6] = target: T3, CYP2C9 (Homo sapiens, UniProt P11712); assay: CYP450 inhibition, CYP2C9 P450-Glo assay kit; type: in vitro ADME
T3 construct: purchased Promega
T3 sequence (P11712 whole entry): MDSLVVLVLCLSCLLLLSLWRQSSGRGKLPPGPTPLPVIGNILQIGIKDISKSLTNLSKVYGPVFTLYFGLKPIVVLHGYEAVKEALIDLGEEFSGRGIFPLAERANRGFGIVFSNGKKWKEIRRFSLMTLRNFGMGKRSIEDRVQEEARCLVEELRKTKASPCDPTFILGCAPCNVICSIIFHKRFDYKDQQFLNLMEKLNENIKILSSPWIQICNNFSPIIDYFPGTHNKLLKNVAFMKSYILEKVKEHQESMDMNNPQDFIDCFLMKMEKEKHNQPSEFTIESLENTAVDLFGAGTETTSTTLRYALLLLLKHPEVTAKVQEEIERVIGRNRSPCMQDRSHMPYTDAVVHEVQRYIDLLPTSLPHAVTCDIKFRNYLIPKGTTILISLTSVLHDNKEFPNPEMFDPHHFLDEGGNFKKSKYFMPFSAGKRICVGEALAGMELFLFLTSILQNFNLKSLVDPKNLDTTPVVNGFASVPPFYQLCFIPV
Text: as §1, §2

[7] = pH dependent aqueous solubility, shake-flask method; type: physicochemical; conditions: aqueous solution, thermodynamic from solid, saturated concentration 1 mM
Method: The aqueous solubility of each compound was determined by the conventional shake-flask method at a saturated concentration of 1 mM. The flask (vial) was shaken for 3 hrs at ambient temperature, and then centrifuged. The supernatant was analyzed by HPLC with UV detection for solubility determination. In general, a higher aqueous solubility is more desirable for drug candidates.

[8] = Metabolic stability in dog liver microsomes; type: in vitro ADME; conditions: 10 μM, 1 mg/mL microsomes, 37° C., 2 hrs
Text: as §3

[9] = Metabolic stability in rat liver microsomes; type: in vitro ADME; conditions: 10 μM, 1 mg/mL microsomes, 37° C., 2 hrs
Text: as §3

[10] = system: mutant forms such as K103N/M184V/NAMS and K103N/Y181C/M184V/NAMS; assay: MDRC4 and CNDO cell-based assays versus other mutant forms; set-up: species or system HIV; conditions: Human immunodeficiency virus 1, read-out: EC50 values
[11] = pH 1, simulated gastric fluid, pH1, ambient temperature, read-out: Aqueous solubility pH1
[12] = pH 3, aqueous buffer, pH3, ambient temperature, read-out: Aqueous solubility pH3
[13] = pH 7, aqueous buffer, pH7, ambient temperature, read-out: Aqueous solubility pH7
[14] = pH 9, aqueous buffer, pH9, ambient temperature, read-out: Aqueous solubility pH9

T1 sequence (P08684 whole entry): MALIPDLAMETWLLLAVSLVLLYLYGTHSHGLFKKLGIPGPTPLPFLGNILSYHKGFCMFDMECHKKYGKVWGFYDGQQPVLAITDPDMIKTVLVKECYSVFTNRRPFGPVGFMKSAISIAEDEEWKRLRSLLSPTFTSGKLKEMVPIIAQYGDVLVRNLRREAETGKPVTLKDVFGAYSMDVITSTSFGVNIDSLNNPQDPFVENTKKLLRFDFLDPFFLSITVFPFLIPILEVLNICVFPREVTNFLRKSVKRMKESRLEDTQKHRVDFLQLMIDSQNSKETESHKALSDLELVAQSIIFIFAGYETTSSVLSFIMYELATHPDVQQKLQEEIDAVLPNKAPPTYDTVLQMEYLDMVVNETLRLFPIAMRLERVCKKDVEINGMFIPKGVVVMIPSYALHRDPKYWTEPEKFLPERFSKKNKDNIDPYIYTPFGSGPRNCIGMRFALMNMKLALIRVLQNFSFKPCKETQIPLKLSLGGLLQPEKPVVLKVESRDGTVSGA

Compound: COP(=O)(c1cc(C)cc(C)c1)c1c(C(=O)NCc2cc[n+]([O-])cc2)[nH]c2ccc(Cl)c(F)c12 (stereo not shown) [Compound B]
- IC50 [1]: 1.04 µM
- IC50 [2]: > 10 µM
- Metabolic stability in liver microsomes % Parent after 2 hrs, Human [3]: 94%
- Metabolic stability in liver microsomes % Parent after 2 hrs, Monkey [4]: 63%
- fraction unbound at 6 h, 1 μM [5]: 0.038
- IC50 [6]: > 10 µM
- solubility at 3 h [7, 11]: 190 µM (≈ 95.4 µg/mL)
- solubility at 3 h [7, 12]: 170 µM (≈ 85.3 µg/mL)
- solubility at 3 h [7, 13]: 200 µM (≈ 100 µg/mL)
- solubility at 3 h [7, 14]: 190 µM (≈ 95.4 µg/mL)
- Metabolic stability in liver microsomes % Parent after 2 hrs, Dog [8]: 85%
- Metabolic stability in liver microsomes % Parent after 2 hrs, Rat [9]: 1%

Compound: COP(=O)(C1=C(C(=O)NCc2ccncc2)N=C2C=CC(Cl)=CC21)c1cc(C)cc(F)c1 (stereo not shown) [Compound P]
- IC50 [1]: 0.77 µM
- IC50 [2]: 2.01 µM
- Metabolic stability in liver microsomes % Parent after 2 hrs, Human [3]: 3%
- Metabolic stability in liver microsomes % Parent after 2 hrs, Monkey [4]: 3%
- fraction unbound at 6 h, 1 μM [5]: < 0.005
- IC50 [6]: 1.68 µM
- solubility at 3 h [7, 11]: > 1000 µM
- solubility at 3 h [7, 12]: 724 µM (≈ 342 µg/mL)
- solubility at 3 h [7, 13]: 24 µM (≈ 11.3 µg/mL)
- solubility at 3 h [7, 14]: 33.8 µM (≈ 15.9 µg/mL)
- Metabolic stability in liver microsomes % Parent after 2 hrs, Dog [8]: 20%
- Metabolic stability in liver microsomes % Parent after 2 hrs, Rat [9]: 0%

Compound: CCOC(=O)c1c(P(=O)(OCC)c2ccccc2)c2cc(Cl)ccc2n1S(=O)(=O)c1ccccc1 (stereo not shown) [Example 3, Ethyl 5-chloro-3-[ethoxy(phenyl)phosphoryl]-1-(phenylsulfonyl)-1H-indole-2-carboxylate]
- EC50 [10]: 0.0013 to 0.447 µM
